“And” between values parts separate entries of the source, which are not always exact repeats. Equal values may be shown once.
Key:
∆-hDAT [1] = molecular target: T1, ∆-hDAT (Homo sapiens, UniProt Q01959, I248Y); experiment: Scintillation proximity assay (SPA), [3H]WIN35428 binding to purified His-tagged ∆-hDAT; set-up: expressed in transfected cells; host or cells: HEK293 GnTI- cells, BacMam baculovirus transduction; settings: β-CFT 0.617 nM, background not subtracted
Method: The various buffer systems were unchanged. YSi-Cu SPA beads at 1 mg ml^−1 were added to ∆-hDAT (30 nM) in SEC buffer (0.02% digitonin, 0.002% CHS, 50 mM HEPES pH 7.8, 200 mM NaCl, 25 µM POPC and 4 µM MRS7292). [^3H]-WIN35428 (82.8 Ci mmol^−1) in 20 mM HEPES pH 7.8 and 100 mM NaCl was used at concentration points ranging from 0 to 150 nM. For background measurement, 100 µM of GBR12909 was added to the assay buffer. Reactants were added to a 96-well isoplate, briefly mixed on a shaker at room temperature, and [^3H] counts were recorded using a MicroBeta2. […] Background subtracted counts were plotted and analysed by a single-site binding model via nonlinear regression analysis in GraphPad Prism v7.05.

∆-hDAT T211E = molecular target: T2, ∆-hDAT T211E (Homo sapiens, UniProt Q01959, I248Y/T211E); experiment: Zn2+ inhibition of [3H]dopamine uptake (IC50), T211E mutant; assay type: cell-based; settings: for T211E total: [3H]dopamine uptake raw counts, Fig 3c, triplicates, replicates 1-3
T2 construct: expressed in transfected cells; host or cells: HEK293 GnTI- cells, BacMam baculovirus transduction
Method: (§1) For IC50 measurements of Zn^2+, uptake assays were carried out as described for MRS7292 with the following alterations. The uptake buffer contained EPPS at pH 8.5 in place of HEPES. Cells were washed once with uptake buffer containing 1 mM ethylenediaminetetraacetic acid (EDTA) to chelate ambient Zn^2+ from the cell growth medium, followed by second wash without EDTA. Cells were then incubated for 15 min in uptake buffers containing 0.3–300 µM added Zn^2+ for ∆-hDAT, 0.1–100 µM added Zn^2+ for T211H, and 0.03–30 µM added Zn^2+ for T211E. […] The IC50 of Zn^2+ for the T211E mutant was also measured at pH 7.5 to obtain a more complete inhibition curve.

∆-hDAT T211H = molecular target: T3, ∆-hDAT T211H (Homo sapiens, UniProt Q01959, I248Y/T211H); experiment: Zn2+ inhibition of [3H]dopamine uptake (IC50), T211H mutant; assay type: cell-based; settings: for T211H total: [3H]dopamine uptake raw counts, Fig 3c, triplicates, replicates 1-3
T3 construct: expressed in transfected cells; host or cells: HEK293 GnTI- cells, BacMam baculovirus transduction
Method: as §1

hDAT D191N = settings: D191 mutated to asparagine; cited from earlier work
∆-hDAT [2] = molecular target: T1, ∆-hDAT; experiment: Zn2+ inhibition of [3H]dopamine uptake (IC50), ∆-hDAT; assay type: cell-based; set-up: expressed in transfected cells; host or cells: HEK293 GnTI- cells, BacMam baculovirus transduction; settings: [3H]dopamine uptake raw counts, Fig 3c, triplicates, replicates 1-3
Method: as §1

∆-hDAT [3] = molecular target: T1, ∆-hDAT; settings: ∆-hDAT, HEK293 GnTI− cells, mean ± s.d., n = 3
Method: (§2) HEK293 GnTI^− cells were transduced with Δ-hDAT and full-length hDAT P2 viruses, propagated in SF9 cells using standard methods as described in ‘Protein expression and purification’, at a cell density of 2.5 – 3.0 × 10^6 cells per ml, followed by incubation at 37 °C for 6 h. After 6 h, sodium butyrate was added to a final concentration of 10 mM, and the cells were transferred to 30 °C with 8% CO2 for 6 h. The transduced cells were seeded into 96-well poly-D-lysine coated Isoplates (Perkin Elmer) at a density of 100,000 cells per well. The plates were then incubated at 30 °C for 12–16 h before the uptake assay was initiated. The cells were initially washed with 37 °C uptake assay buffer composed of 25 mM HEPES pH 7.4, 120 mM NaCl, 5 mM KCl, 1.2 mM CaCl2, 1.2 mM MgSO4, 5 mM D-glucose, 1 mM ascorbic acid, and 1 µM Ro 41-0960, followed by incubation in 50 µl of the same buffer for 10 min. Replicates with 10 µM of GBR12909 in the uptake assay buffer were used to measure background. […] The uptake reaction was stopped by adding 100 µl of chilled inhibition buffer, uptake assay buffer supplemented with 2.5 µM GBR12909. Two consecutive washes with 100 µl of inhibition buffer were carried out, followed by resuspension of cells in 100 µl of 1% Triton X-100. Finally, 100 µl of liquid scintillation cocktail was added to each well and [^3H] counts were measured using a MicroBeta2 (Perkin Elmer). Background counts from three replicates were averaged and subtracted from total counts.

full-length hDAT = full-length hDAT (Homo sapiens, UniProt Q01959); settings: full-length hDAT, HEK293 GnTI− cells, mean ± s.d., n = 3
Method: as §2

hDAT W84C = settings: W84C mutant; cited from earlier work
[4] = substrate: NCCc1ccc(O)c(O)c1; experiment: cells, lysate or membranes; settings: HEK293 GnTI− cells, Michaelis–Menten model, mean ± s.d., n = 3, pH 7.4

T3 sequence (Q01959 57-620 T211H/I248Y limits assumed): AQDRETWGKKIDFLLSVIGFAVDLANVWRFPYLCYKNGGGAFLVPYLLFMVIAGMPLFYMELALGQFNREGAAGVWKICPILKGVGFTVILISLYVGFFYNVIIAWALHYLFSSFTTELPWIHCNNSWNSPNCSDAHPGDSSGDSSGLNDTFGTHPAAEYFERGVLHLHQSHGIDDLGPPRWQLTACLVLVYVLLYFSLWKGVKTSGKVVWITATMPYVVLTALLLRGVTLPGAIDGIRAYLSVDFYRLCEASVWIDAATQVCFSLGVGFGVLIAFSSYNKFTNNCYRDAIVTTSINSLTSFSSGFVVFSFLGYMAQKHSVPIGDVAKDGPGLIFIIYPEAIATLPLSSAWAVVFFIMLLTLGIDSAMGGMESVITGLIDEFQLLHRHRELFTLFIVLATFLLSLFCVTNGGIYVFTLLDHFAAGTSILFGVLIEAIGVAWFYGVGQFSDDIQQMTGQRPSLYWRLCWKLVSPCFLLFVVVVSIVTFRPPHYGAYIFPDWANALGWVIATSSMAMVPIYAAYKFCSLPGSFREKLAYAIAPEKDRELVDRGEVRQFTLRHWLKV
T2 sequence (Q01959 57-620 T211E/I248Y limits assumed): as the sequence (Q01959 57-620 T211H/I248Y limits assumed) above, with H155E counted along it

COC(=O)C1C(c2ccc(F)cc2)CC2CCC1N2C (single isomer, unassigned; (-)) [β-CFT, (–)-2-β-carbomethoxy-3-β-(4-fluorophenyl)tropane]
SPA total counts, binding to purified ∆-hDAT (∆-hDAT [1]): 204 and 169 and 192 and 177 and 171 and 174 and 189 and 179

[Zn+2] [Zn^2+]
T211E total (∆-hDAT T211E; Added Zn2+ 0.0457 µM): 1043 and 1084 and 946 and 1214 and 1350 and 1252 and 1437 and 1516 and 1325
T211E total (∆-hDAT T211E; Added Zn2+ 0.14 µM): 623 and 609 and 563 and 777 and 766 and 728 and 853 and 1009 and 867
T211E total (∆-hDAT T211E; Added Zn2+ 0.41 µM): 635 and 450 and 501 and 372 (2×) and 389 and 527 and 516 and 677
T211E total (∆-hDAT T211E; Added Zn2+ 1.23 µM): 459 and 447 and 440 and 286 and 276 and 244 and 481 and 403 (2×)
T211E total (∆-hDAT T211E; Added Zn2+ 3.70 µM): 335 and 268 and 302 and 159 and 217 and 381 and 284 and 246 and 231
T211E total (∆-hDAT T211E; Added Zn2+ 11.11 µM): 323 and 314 and 345 and 238 and 249 and 229 and 277 and 278
T211E total (∆-hDAT T211E; Added Zn2+ 33.33 µM): 416 and 290 and 362 and 261 and 242 and 215 and 342 and 313 and 301
IC50 of Zn2+ lower than that of ∆-hDAT (∆-hDAT T211E; T211E mutant, [3H]dopamine uptake, pH 8.5): around 100 fold
T211H total (∆-hDAT T211H; Added Zn2+ 0.14 µM): 2307 and 2405 and 2334 and 1111 and 679 and 946 and 2428 and 2969 and 2868
T211H total (∆-hDAT T211H; Added Zn2+ 0.41 µM): 1917 and 1650 and 1702 and 922 and 890 and 993 and 2213 and 1804 and 1794
T211H total (∆-hDAT T211H; Added Zn2+ 1.23 µM): 1146 and 1389 and 1404 and 571 and 540 and 534 and 1806 and 1414 and 1274
T211H total (∆-hDAT T211H; Added Zn2+ 3.70 µM): 951 and 892 and 809 and 316 and 317 and 411 and 837 and 824 and 1109
T211H total (∆-hDAT T211H; Added Zn2+ 11.11 µM): 810 and 577 and 717 and 230 and 281 and 267 and 486 and 515 and 477
T211H total (∆-hDAT T211H; Added Zn2+ 33.33 µM): 528 and 524 and 546 and 246 and 210 and 198 and 441 and 462 and 475
T211H total (∆-hDAT T211H; Added Zn2+ 100.00 µM): 419 and 394 and 350 and 158 and 145 and 163 and 252 and 226 and 267
IC50 of Zn2+ lower than that of ∆-hDAT (∆-hDAT T211H; T211H mutant, [3H]dopamine uptake, pH 8.5): ~20 fold
decrease in apparent Zn2+ affinity (hDAT D191N): apparent threefold decrease
Δ-hDAT total counts (∆-hDAT [2]; Added Zn2+ 0.41 µM): 3458 counts and 3089 counts and 3357 counts and 3017 counts and 2960 counts and 2624 counts and 3155 counts and 3308 counts and 3482 counts
Δ-hDAT total counts (∆-hDAT [2]; Added Zn2+ 1.23 µM): 3105 counts and 3118 counts and 3175 counts and 2225 counts and 1943 counts and 2195 counts and 3616 counts and 3027 counts and 2892 counts
Δ-hDAT total counts (∆-hDAT [2]; Added Zn2+ 3.70 µM): 1979 counts and 2178 counts and 2228 counts and 2099 counts and 1947 counts and 1866 counts and 2321 counts and 2149 counts and 1943 counts
Δ-hDAT total counts (∆-hDAT [2]; Added Zn2+ 11.11 µM): 2029 counts and 1818 counts and 1787 counts and 1695 counts and 1560 counts and 1477 counts and 1550 counts and 1703 counts and 2026 counts
Δ-hDAT total counts (∆-hDAT [2]; Added Zn2+ 33.33 µM): 1238 counts and 1123 counts and 1240 counts and 1063 counts and 1147 counts and 906 counts and 1573 counts and 1503 counts and 1606 counts
Δ-hDAT total counts (∆-hDAT [2]; Added Zn2+ 100.00 µM): 771 counts and 681 counts and 793 counts and 660 counts and 598 counts and 682 counts and 1221 counts and 1015 counts and 885 counts
Δ-hDAT total counts (∆-hDAT [2]; Added Zn2+ 300.00 µM): 402 counts and 451 counts and 435 counts and 386 counts and 349 counts and 353 counts and 418 counts and 427 counts

NCCc1ccc(O)c(O)c1 [[^3H]dopamine, dopamine]
reaction rate at infinite substrate concentration (Vmax) for [3H]dopamine uptake (∆-hDAT [3]): 342.8 ± 11.7 fmol min^−1 per well
reaction rate at infinite substrate concentration (Vmax) for [3H]dopamine uptake (full-length hDAT): 190.9 ± 10.7 fmol min^−1 per well

CCc1ccc2[nH]c3nc(SCCNS(=O)(=O)c4ccc(NC(C)=O)cc4)nnc3c2c1 [KM822]
effect of mutation on potency of KM822 (hDAT W84C): increases the potency

B1: full-length hDAT (Homo sapiens) (protein)
chain: MSKSKCSVGLMSSVVAPAKEPNAVGPKEVELILVKEQNGVQLTSSTLTNPRQSPVEAQDRETWGKKIDFLLSVIGFAVDLANVWRFPYLCYKNGGGAFLVPYLLFMVIAGMPLFYMELALGQFNREGAAGVWKICPILKGVGFTVILISLYVGFFYNVIIAWALHYLFSSFTTELPWIHCNNSWNSPNCSDAHPGDSSGDSSGLNDTFGTTPAAEYFERGVLHLHQSHGIDDLGPPRWQLTACLVLVIVLLYFSLWKGVKTSGKVVWITATMPYVVLTALLLRGVTLPGAIDGIRAYLSVDFYRLCEASVWIDAATQVCFSLGVGFGVLIAFSSYNKFTNNCYRDAIVTTSINSLTSFSSGFVVFSFLGYMAQKHSVPIGDVAKDGPGLIFIIYPEAIATLPLSSAWAVVFFIMLLTLGIDSAMGGMESVITGLIDEFQLLHRHRELFTLFIVLATFLLSLFCVTNGGIYVFTLLDHFAAGTSILFGVLIEAIGVAWFYGVGQFSDDIQQMTGQRPSLYWRLCWKLVSPCFLLFVVVVSIVTFRPPHYGAYIFPDWANALGWVIATSSMAMVPIYAAYKFCSLPGSFREKLAYAIAPEKDRELVDRGEVRQFTLRHWLKV
Km ([4]; other: full-length hDAT): 0.56 ± 0.13 µM

B2: ∆-hDAT (Homo sapiens; I248Y) (protein)
chain: AQDRETWGKKIDFLLSVIGFAVDLANVWRFPYLCYKNGGGAFLVPYLLFMVIAGMPLFYMELALGQFNREGAAGVWKICPILKGVGFTVILISLYVGFFYNVIIAWALHYLFSSFTTELPWIHCNNSWNSPNCSDAHPGDSSGDSSGLNDTFGTTPAAEYFERGVLHLHQSHGIDDLGPPRWQLTACLVLVYVLLYFSLWKGVKTSGKVVWITATMPYVVLTALLLRGVTLPGAIDGIRAYLSVDFYRLCEASVWIDAATQVCFSLGVGFGVLIAFSSYNKFTNNCYRDAIVTTSINSLTSFSSGFVVFSFLGYMAQKHSVPIGDVAKDGPGLIFIIYPEAIATLPLSSAWAVVFFIMLLTLGIDSAMGGMESVITGLIDEFQLLHRHRELFTLFIVLATFLLSLFCVTNGGIYVFTLLDHFAAGTSILFGVLIEAIGVAWFYGVGQFSDDIQQMTGQRPSLYWRLCWKLVSPCFLLFVVVVSIVTFRPPHYGAYIFPDWANALGWVIATSSMAMVPIYAAYKFCSLPGSFREKLAYAIAPEKDRELVDRGEVRQFTLRHWLKV
Km ([4]; other: ∆-hDAT): 0.55 ± 0.07 µM

Reference: publication PMC11324517 (Nature, 2024)
